Data as given in paper PMC7203245, “Lacosamide intake during pregnancy increases the incidence of foetal malformations and symptoms associated with schizophrenia in the offspring of mice” (Scientific Reports, 2020).

Experiment: LCM and related compounds (RC) in embryos and mothers' serum by high-resolution MS/MSe
Type: in vivo, mice
Details: for presence in the serum of mothers: dams given 10-120 mg/kg LCM
Protocol: Samples were extracted as described previously[25] with slight modifications. Briefly, embryos were rinsed with cold saline and ultrapure water, and their wet-weight was determined. […] The mixture was vortexed vigorously for 3 min and centrifuged at 13,000 g for 5 min. The supernatant was transferred to a new Eppendorf tube and evaporated to dryness in a stream of nitrogen gas. The residue was reconstituted with 50 µL of LC-MS Ultrapure water, vortexed for 20 s and centrifuged at 13,000 g for 5 min. The supernatant was transferred to a conic micro insert to be injected onto the UHPLC system.
MS spectra data were collected between m/z 50 and 1000, and MS/MS spectra were registered between 50-300 Da. […] The MS^e procedure was used to identify metabolites in positive ionization mode. UPLC–QTOF-MS^e detection collects data using two scan functions, providing fragment ion information without precursor ion selection. A characteristic m/z in the low energy function allows identification through the fragment ions obtained with the high collision energy function. Two functions were acquired at different collision energies: a low energy function obtained at 2 eV; and a high-energy function obtained using a collision energy ramp ranging from 15 to 30 eV and spectra data collected between m/z 50 and 800. The data station operating the software was a MassLynx version 4.1, while metabolites were identified by means of Metabolynx XS (Waters, Micromass, Manchester, UK).
In this work the following routes were selected for these searches: phase I metabolites Reduction (+H2), Hydroxylation (O), Hydration (+H2O), 2xHydroxylation (+O2), Deacetylation (-C2H2O) and Demethylation (-CH2); and phase II metabolites Acetylation (+C2H2O) and Glucuronide (+C6H8O6).

NCc1ccccc1 [RC 1]
Embryos in which the LCM compound is present (Maternal Dose 10 mg/kg): Embryo1 and 2
presence in the serum of mothers: detected in the serum of all mothers
number of embryos in which detected (embryo from a dam treated with 10 mg/kg LCM): 1

CC(=O)N[C@H](CO)C(=O)NCc1ccccc1 [RC 2, O-Demethyl LCM]
Embryos in which the LCM compound is present (Maternal Dose 10 mg/kg): Embryo1 and 2
Embryos in which the LCM compound is present (Maternal Dose 80 mg/kg): Embryo 5 and 6
presence in the serum of mothers: detected in the serum of all mothers
number of embryos in which detected (embryos from dams treated with 10 mg/kg and 80 mg/kg LCM): 2

COC[C@@H](N)C(=O)NCc1ccccc1 [deacetylacosamide]
presence in samples from mothers (mothers who received 10 mg/kg LCM): contained

CC(=O)N[C@H](CO)C(=O)NCc1ccccc1 [desmethylacosamide]
presence in samples from dams (dams that received 120 mg/kg LCM): some samples from the corresponding dams contained
